Here are results for one molecule from patent US20200015478A1, “ANTIBACTERIAL COMPOSITION CONTAINING CARYOLAN-1-OL” (INDUSTRY-ACADEMIC COOPERATION FOUNDATION GYEONGSANG …, priority 2016, published 2020).

The structures appear in SMILES notation.

The assay relates to Botrytis cinerea. Put plainly: Mycelium growth rate of Botrytis cinerea with synthesized caryolan-1-ol vapour from paper disc. Particulars: Botrytis cinerea on PDA, 10 μl acetone solution on paper disc, sealed, 27° C., 4 days, FIG. 6. The assay is classed as cell-based. As to the method: Next, in order to verify the antibacterial activity of the synthesized caryolan-1-ol, PDA (Potato starch 4 g, dextrose 20 g, Agar 20 g with respect to 1 liter) medium was prepared so as to allow 60 mm Petri dishes to have 12 ml space. Botrytis cinerea was inoculated with a radius of 2 mm Based on the concentration at which caryolan-1-ol was completely gaseous, caryolan-1-ol was dissolved in acetone, and then the solution was treated to the paper disc placed on a lid at 10 μl each. After sealing, they were cultured at 27° C., and the growth rate of mycelium was measured for 4 days. The growth rate for the acetone treatment group was determined.

For `CC12CCCC(O)(C1)C1CC(C)(C)C1CC2` (stereo not shown) [caryolan-1-ol], the “growth rate of mycelium relative to acetone treatment group” value was “significantly inhibited the growth”.
